In ChEMBL document CHEMBL3885861, “Open TG-GATES”:

Species: Rattus norvegicus
Experiment: Open TG-GATES - Regimen: Single
Type: toxicity, organism-based, Sprague-Dawley
Design: regimen Single, gender Male, age 6 weeks
Conditions: in vivo, po, route gavage; for APTT / Bas / Eos / Fbg / Hb / Ht / Lym / MCH / MCHC / MCV / Mono / Neu / PT / Plat / RBC / Ret / WBC: tissue Blood; for KIDNEY_L / KIDNEY_R / KIDNEY_TOTAL: tissue Kidney; for ALP / ALT / AST / CRE / Cl / DBIL / GLC / IP / K / LDH / Na / PL / RALB / TBIL / TC / TG / TP / gamma-GTP: tissue Plasma

COc1cc2c(c(OC)c1OC)-c1ccc(OC)c(=O)cc1[C@@H](NC(C)=O)CC2 [COLCHICINE]
APTT (2 mg/kg, 3 h, dose level Low): 16.6 s
Bas (2 mg/kg, 3 h, dose level Low): 0%
Eos (2 mg/kg, 3 h, dose level Low): 1%
Fbg (2 mg/kg, 3 h, dose level Low): 218.6 mg/dL
Hb (2 mg/kg, 3 h, dose level Low): 13.5 g/dL
Ht (2 mg/kg, 3 h, dose level Low): 40.7%
Lym (2 mg/kg, 3 h, dose level Low): 84.4%
MCH (2 mg/kg, 3 h, dose level Low): 21.9 pg
MCHC (2 mg/kg, 3 h, dose level Low): 33.2%
MCV (2 mg/kg, 3 h, dose level Low): 66.1 fL
Mono (2 mg/kg, 3 h, dose level Low): 6.2%
Neu (2 mg/kg, 3 h, dose level Low): 8.8%
PT (2 mg/kg, 3 h, dose level Low): 11.8 s
Plat (2 mg/kg, 3 h, dose level Low): 109.4 x10_4/uL
RBC (2 mg/kg, 3 h, dose level Low): 616.8 x10_4/ul
Ret (2 mg/kg, 3 h, dose level Low): 10.2%
WBC (2 mg/kg, 3 h, dose level Low): 106.7 x10_2/uL
KIDNEY_L (2 mg/kg, 3 h, dose level Low): 1 g
KIDNEY_R (2 mg/kg, 3 h, dose level Low): 1 g
KIDNEY_TOTAL (2 mg/kg, 3 h, dose level Low): 2 g
ALP (2 mg/kg, 3 h, dose level Low): 946.8 IU/L
ALT (2 mg/kg, 3 h, dose level Low): 41.6 IU/L
AST (2 mg/kg, 3 h, dose level Low): 84.4 IU/L
CRE (2 mg/kg, 3 h, dose level Low): 0.5 mg/dL
Cl (2 mg/kg, 3 h, dose level Low): 104 meq/L
DBIL (2 mg/kg, 3 h, dose level Low): 0.01 mg/dL
GLC (2 mg/kg, 3 h, dose level Low): 199.8 mg/dL
IP (2 mg/kg, 3 h, dose level Low): 9.3 mg/dL
K (2 mg/kg, 3 h, dose level Low): 4.7 meq/L
LDH (2 mg/kg, 3 h, dose level Low): 137.8 IU/L
Na (2 mg/kg, 3 h, dose level Low): 140.2 meq/L
PL (2 mg/kg, 3 h, dose level Low): 143.6 mg/dL
RALB (2 mg/kg, 3 h, dose level Low): 3.7 g/dL
TBIL (2 mg/kg, 3 h, dose level Low): 0.4 mg/dL
TC (2 mg/kg, 3 h, dose level Low): 80.6 mg/dL
TG (2 mg/kg, 3 h, dose level Low): 57.6 mg/dL
TP (2 mg/kg, 3 h, dose level Low): 5.5 g/dL
gamma-GTP (2 mg/kg, 3 h, dose level Low): 1.8 IU/L
TERMINAL_BW (2 mg/kg, 6 h, dose level Low): 217.7 g
APTT (2 mg/kg, 6 h, dose level Low): 16.3 s
Bas (2 mg/kg, 6 h, dose level Low): 0%
Eos (2 mg/kg, 6 h, dose level Low): 1%
Fbg (2 mg/kg, 6 h, dose level Low): 218.8 mg/dL
Hb (2 mg/kg, 6 h, dose level Low): 13.4 g/dL
Ht (2 mg/kg, 6 h, dose level Low): 40.8%
Lym (2 mg/kg, 6 h, dose level Low): 81%
MCH (2 mg/kg, 6 h, dose level Low): 21.6 pg
MCHC (2 mg/kg, 6 h, dose level Low): 32.7%
MCV (2 mg/kg, 6 h, dose level Low): 65.9 fL
Mono (2 mg/kg, 6 h, dose level Low): 6.8%
Neu (2 mg/kg, 6 h, dose level Low): 11.2%
PT (2 mg/kg, 6 h, dose level Low): 11.9 s
Plat (2 mg/kg, 6 h, dose level Low): 109.8 x10_4/uL
RBC (2 mg/kg, 6 h, dose level Low): 620 x10_4/ul
Ret (2 mg/kg, 6 h, dose level Low): 9.8%
WBC (2 mg/kg, 6 h, dose level Low): 115.2 x10_2/uL
KIDNEY_L (2 mg/kg, 6 h, dose level Low): 0.9 g
KIDNEY_R (2 mg/kg, 6 h, dose level Low): 0.9 g
KIDNEY_TOTAL (2 mg/kg, 6 h, dose level Low): 1.9 g
ALT (2 mg/kg, 6 h, dose level Low): 40.8 IU/L
AST (2 mg/kg, 6 h, dose level Low): 81.8 IU/L
CRE (2 mg/kg, 6 h, dose level Low): 0.5 mg/dL
Cl (2 mg/kg, 6 h, dose level Low): 104.4 meq/L
DBIL (2 mg/kg, 6 h, dose level Low): 0.03 mg/dL
GLC (2 mg/kg, 6 h, dose level Low): 188.6 mg/dL
IP (2 mg/kg, 6 h, dose level Low): 9.8 mg/dL
K (2 mg/kg, 6 h, dose level Low): 4.7 meq/L
LDH (2 mg/kg, 6 h, dose level Low): 113.6 IU/L
Na (2 mg/kg, 6 h, dose level Low): 140.2 meq/L
PL (2 mg/kg, 6 h, dose level Low): 131.6 mg/dL
RALB (2 mg/kg, 6 h, dose level Low): 3.7 g/dL
TBIL (2 mg/kg, 6 h, dose level Low): 0.4 mg/dL
TC (2 mg/kg, 6 h, dose level Low): 73 mg/dL
TG (2 mg/kg, 6 h, dose level Low): 49.6 mg/dL
TP (2 mg/kg, 6 h, dose level Low): 5.5 g/dL
gamma-GTP (2 mg/kg, 6 h, dose level Low): 1.2 IU/L
TERMINAL_BW (2 mg/kg, 9 h, dose level Low): 215.3 g
APTT (2 mg/kg, 9 h, dose level Low): 16.2 s
Bas (2 mg/kg, 9 h, dose level Low): 0%
Eos (2 mg/kg, 9 h, dose level Low): 0.8%
Fbg (2 mg/kg, 9 h, dose level Low): 212.4 mg/dL
Hb (2 mg/kg, 9 h, dose level Low): 12.9 g/dL
Ht (2 mg/kg, 9 h, dose level Low): 39%
Lym (2 mg/kg, 9 h, dose level Low): 72.2%
MCH (2 mg/kg, 9 h, dose level Low): 21.2 pg
MCHC (2 mg/kg, 9 h, dose level Low): 33.1%
MCV (2 mg/kg, 9 h, dose level Low): 64.1 fL
Mono (2 mg/kg, 9 h, dose level Low): 11.8%
Neu (2 mg/kg, 9 h, dose level Low): 15.6%
PT (2 mg/kg, 9 h, dose level Low): 11.7 s
Plat (2 mg/kg, 9 h, dose level Low): 114.1 x10_4/uL
RBC (2 mg/kg, 9 h, dose level Low): 609.6 x10_4/ul
Ret (2 mg/kg, 9 h, dose level Low): 9.8%
WBC (2 mg/kg, 9 h, dose level Low): 101.3 x10_2/uL
KIDNEY_L (2 mg/kg, 9 h, dose level Low): 1 g
KIDNEY_R (2 mg/kg, 9 h, dose level Low): 1 g
KIDNEY_TOTAL (2 mg/kg, 9 h, dose level Low): 2 g
ALP (2 mg/kg, 9 h, dose level Low): 888 IU/L
ALT (2 mg/kg, 9 h, dose level Low): 47.6 IU/L
AST (2 mg/kg, 9 h, dose level Low): 93.4 IU/L
CRE (2 mg/kg, 9 h, dose level Low): 0.5 mg/dL
Cl (2 mg/kg, 9 h, dose level Low): 105.2 meq/L
DBIL (2 mg/kg, 9 h, dose level Low): 0.072 mg/dL
GLC (2 mg/kg, 9 h, dose level Low): 189.2 mg/dL
IP (2 mg/kg, 9 h, dose level Low): 9.4 mg/dL
K (2 mg/kg, 9 h, dose level Low): 4.8 meq/L
LDH (2 mg/kg, 9 h, dose level Low): 115 IU/L
Na (2 mg/kg, 9 h, dose level Low): 137.4 meq/L
PL (2 mg/kg, 9 h, dose level Low): 130 mg/dL
RALB (2 mg/kg, 9 h, dose level Low): 3.7 g/dL
TBIL (2 mg/kg, 9 h, dose level Low): 0.4 mg/dL
TC (2 mg/kg, 9 h, dose level Low): 80.4 mg/dL
TG (2 mg/kg, 9 h, dose level Low): 36.2 mg/dL
TP (2 mg/kg, 9 h, dose level Low): 5.4 g/dL
gamma-GTP (2 mg/kg, 9 h, dose level Low): 1.4 IU/L
TERMINAL_BW (2 mg/kg, 24 h, dose level Low): 231.9 g
APTT (2 mg/kg, 24 h, dose level Low): 17.8 s
Bas (2 mg/kg, 24 h, dose level Low): 0%
Eos (2 mg/kg, 24 h, dose level Low): 1%
Fbg (2 mg/kg, 24 h, dose level Low): 213 mg/dL
Hb (2 mg/kg, 24 h, dose level Low): 12.8 g/dL
Ht (2 mg/kg, 24 h, dose level Low): 38.5%
Lym (2 mg/kg, 24 h, dose level Low): 79.6%
MCH (2 mg/kg, 24 h, dose level Low): 22.1 pg
MCHC (2 mg/kg, 24 h, dose level Low): 33.3%
MCV (2 mg/kg, 24 h, dose level Low): 66.4 fL
Mono (2 mg/kg, 24 h, dose level Low): 7.6%
Neu (2 mg/kg, 24 h, dose level Low): 11.8%
PT (2 mg/kg, 24 h, dose level Low): 11.3 s
Plat (2 mg/kg, 24 h, dose level Low): 108 x10_4/uL
RBC (2 mg/kg, 24 h, dose level Low): 580.6 x10_4/ul
Ret (2 mg/kg, 24 h, dose level Low): 9.1%
WBC (2 mg/kg, 24 h, dose level Low): 127.4 x10_2/uL
KIDNEY_L (2 mg/kg, 24 h, dose level Low): 1.1 g
KIDNEY_R (2 mg/kg, 24 h, dose level Low): 1.1 g
KIDNEY_TOTAL (2 mg/kg, 24 h, dose level Low): 2.1 g
ALP (2 mg/kg, 24 h, dose level Low): 972.6 IU/L
ALT (2 mg/kg, 24 h, dose level Low): 37.2 IU/L
AST (2 mg/kg, 24 h, dose level Low): 69 IU/L
CRE (2 mg/kg, 24 h, dose level Low): 0.6 mg/dL
Cl (2 mg/kg, 24 h, dose level Low): 103.4 meq/L
DBIL (2 mg/kg, 24 h, dose level Low): 0.05 mg/dL
GLC (2 mg/kg, 24 h, dose level Low): 201.2 mg/dL
IP (2 mg/kg, 24 h, dose level Low): 6.6 mg/dL
K (2 mg/kg, 24 h, dose level Low): 4.4 meq/L
LDH (2 mg/kg, 24 h, dose level Low): 113 IU/L
Na (2 mg/kg, 24 h, dose level Low): 139 meq/L
PL (2 mg/kg, 24 h, dose level Low): 156.6 mg/dL
RALB (2 mg/kg, 24 h, dose level Low): 3.8 g/dL
TBIL (2 mg/kg, 24 h, dose level Low): 0.4 mg/dL
TC (2 mg/kg, 24 h, dose level Low): 83.6 mg/dL
TG (2 mg/kg, 24 h, dose level Low): 125.8 mg/dL
TP (2 mg/kg, 24 h, dose level Low): 5.7 g/dL
gamma-GTP (2 mg/kg, 24 h, dose level Low): 1 IU/L
TERMINAL_BW (5 mg/kg, 3 h, dose level Middle): 224.6 g
